According to ChEMBL document CHEMBL1201862, “PubChem BioAssay data set” (2004):
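Grown in 96-well plates, cells were treated for 48 hours with each compound at five concentrations. Insufficient inhibition: endpoint recorded as highest concentration tested. Abbreviation: GI50, concentration required for 50% inhibition of growth.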 The source made the active and inactive calls. Cut-off read from the data, not from the text of the source: active = GI50 up to about 1.1 µM and inactive = higher.

Experiments:
Assay in all cases: NCI-60 cell line screen, 48 h
[1] = test system: DU-145
[2] = test system: EKVX
[3] = test system: HCT-116
[4] = test system: HL-60
[5] = test system: HOP-62
[6] = test system: KM12
[7] = test system: LOX IMVI
[8] = test system: MCF7
[9] = test system: MDA-MB-231
[10] = test system: MDA-N
[11] = test system: NCI-H23
[12] = test system: OVCAR-4
[13] = test system: RPMI-8226
[14] = test system: RXF 393
[15] = test system: SF-295
[16] = test system: SK-MEL-5
[17] = test system: SNB-19
[18] = test system: T47D
[19] = test system: UO-31
[20] = test system: CCRF-CEM

Row | Compound | GI50 [1] | GI50 [2] | GI50 [3] | GI50 [4] | GI50 [5] | GI50 [6] | GI50 [7] | GI50 [8] | GI50 [9] | GI50 [10] | GI50 [11] | GI50 [12] | GI50 [13] | GI50 [14] | GI50 [15] | GI50 [16] | GI50 [17] | GI50 [18] | GI50 [19] | GI50 [20]
1 | OCC1CCCC(n2cnc3c(S)ncnc32)O1 (configuration not stated) | > 100 µM (inactive) | > 100 µM (inactive) | > 100 µM (inactive) | 0.0252 µM (active) | > 100 µM (inactive) | > 100 µM (inactive) | > 100 µM (inactive) | > 100 µM (inactive) | > 100 µM (inactive) | > 100 µM (inactive) | > 100 µM (inactive) | > 100 µM (inactive) | > 100 µM (inactive) | > 100 µM (inactive) | > 100 µM (inactive) | > 100 µM (inactive) | > 100 µM (inactive) | > 100 µM (inactive) | > 100 µM (inactive) | –
2 | COc1cc2c3c4[n+](cc2c(OC)c1OC)CCC4CCC3 (configuration not stated) | > 100 µM (inactive) | > 100 µM (inactive) | > 100 µM (inactive) | – | > 100 µM (inactive) | 47.4 µM (inactive) | > 100 µM (inactive) | 75.2 µM (inactive) | > 100 µM (inactive) | > 100 µM (inactive) | 98.9 µM (inactive) | > 100 µM (inactive) | 40.4 µM (inactive) | > 84.3 µM (inactive) | > 100 µM (inactive) | 21.6 µM (inactive) | 48.9 µM (inactive) | 24.9 µM (inactive) | > 100 µM (inactive) | > 62.1 µM (inactive)
3 | O=[N+]([O-])C1CC/C(=N/O)c2nonc21 (configuration not stated) | > 10 µM (inactive) | > 10 µM (inactive) | > 10 µM (inactive) | > 10 µM (inactive) | > 10 µM (inactive) | > 10 µM (inactive) | – | > 10 µM (inactive) | > 10 µM (inactive) | > 10 µM (inactive) | > 10 µM (inactive) | > 10 µM (inactive) | > 10 µM (inactive) | > 10 µM (inactive) | > 10 µM (inactive) | > 10 µM (inactive) | > 10 µM (inactive) | > 10 µM (inactive) | > 10 µM (inactive) | > 10 µM (inactive)
4 | O=C(NCC(O)COc1ccccc1)c1ccccc1O (configuration not stated) | > 100 µM (inactive) | > 100 µM (inactive) | > 100 µM (inactive) | – | > 100 µM (inactive) | > 100 µM (inactive) | > 100 µM (inactive) | > 100 µM (inactive) | > 100 µM (inactive) | > 100 µM (inactive) | > 100 µM (inactive) | > 100 µM (inactive) | > 100 µM (inactive) | > 100 µM (inactive) | > 100 µM (inactive) | 63.5 µM (inactive) | 91 µM (inactive) | 42.4 µM (inactive) | 47.8 µM (inactive) | 40.5 µM (inactive)
5 | CO[C@H]1O[C@@H]2OC3(C)CCC4[C@H](C)CCC([C@H]1C)[C@]42OO3 (some centres not stated) | > 100 µM (inactive) | > 100 µM (inactive) | > 100 µM (inactive) | 1.32 µM (inactive) | > 100 µM (inactive) | – | > 100 µM (inactive) | – | > 100 µM (inactive) | > 100 µM (inactive) | > 100 µM (inactive) | > 100 µM (inactive) | 12.1 µM (inactive) | > 100 µM (inactive) | > 100 µM (inactive) | 38 µM (inactive) | > 100 µM (inactive) | 91.6 µM (inactive) | 24.8 µM (inactive) | 19.1 µM (inactive)
6 | CC(=O)NNC1=NN(C(C)=O)C2(S1)C(=O)Nc1ccccc12 (configuration not stated) | > 100 µM (inactive) | > 100 µM (inactive) | > 100 µM (inactive) | 97.5 µM (inactive) | > 100 µM (inactive) | > 100 µM (inactive) | > 100 µM (inactive) | > 100 µM (inactive) | > 100 µM (inactive) | > 100 µM (inactive) | > 100 µM (inactive) | > 100 µM (inactive) | > 100 µM (inactive) | – | – | > 100 µM (inactive) | > 100 µM (inactive) | > 100 µM (inactive) | > 100 µM (inactive) | > 100 µM (inactive)
7 | Cc1c2c(c(C)n1-c1ccccc1)C(=O)N(CCN1CCN(c3cccc(C(F)(F)F)c3)CC1)C2=O | > 100 µM (inactive) | 8.02 µM (inactive) | 8.36 µM (inactive) | – | > 100 µM (inactive) | 30.5 µM (inactive) | 37.1 µM (inactive) | 7.71 µM (inactive) | > 100 µM (inactive) | 71.1 µM (inactive) | 7.94 µM (inactive) | 7.35 µM (inactive) | 21.5 µM (inactive) | > 100 µM (inactive) | 50.1 µM (inactive) | 5.25 µM (inactive) | > 100 µM (inactive) | 4.29 µM (inactive) | 48.6 µM (inactive) | –
8 | COC(=O)/C=C(/C)n1nc2ccccc2n1 | > 100 µM (inactive) | 37.7 µM (inactive) | > 100 µM (inactive) | – | > 100 µM (inactive) | > 100 µM (inactive) | – | > 100 µM (inactive) | > 100 µM (inactive) | > 100 µM (inactive) | > 100 µM (inactive) | > 100 µM (inactive) | 22.4 µM (inactive) | > 100 µM (inactive) | > 100 µM (inactive) | > 100 µM (inactive) | > 100 µM (inactive) | > 100 µM (inactive) | > 100 µM (inactive) | > 100 µM (inactive)
9 | CC(C)(/N=N/C(C)(C)C(=N)N)C(=N)N | > 100 µM (inactive) | > 100 µM (inactive) | > 100 µM (inactive) | > 100 µM (inactive) | > 100 µM (inactive) | > 100 µM (inactive) | > 100 µM (inactive) | > 100 µM (inactive) | > 100 µM (inactive) | > 100 µM (inactive) | > 100 µM (inactive) | > 100 µM (inactive) | > 100 µM (inactive) | > 100 µM (inactive) | > 100 µM (inactive) | > 100 µM (inactive) | > 100 µM (inactive) | > 100 µM (inactive) | > 100 µM (inactive) | –
10 | C=C1CC[C@H]2C(C)=CC[C@H]3C(=C)C(=O)O[C@@H]3[C@@H]12 [EREMANTHIN] | > 100 µM (inactive) | > 100 µM (inactive) | > 100 µM (inactive) | > 100 µM (inactive) | – | – | > 100 µM (inactive) | > 100 µM (inactive) | > 100 µM (inactive) | > 100 µM (inactive) | > 100 µM (inactive) | > 100 µM (inactive) | – | – | > 100 µM (inactive) | > 100 µM (inactive) | > 100 µM (inactive) | > 100 µM (inactive) | > 100 µM (inactive) | > 100 µM (inactive)
11 | OCc1c2c(cc3c1CC1(C3)Cc3cc4c(c(CO)c3C1)CCC4)CCC2 | – | 14.6 µM (inactive) | 13.6 µM (inactive) | 5.73 µM (inactive) | 15.6 µM (inactive) | 16.4 µM (inactive) | 15.1 µM (inactive) | 23.5 µM (inactive) | 15.2 µM (inactive) | 15.1 µM (inactive) | 13.1 µM (inactive) | 10.1 µM (inactive) | 21.1 µM (inactive) | 16.6 µM (inactive) | 12.4 µM (inactive) | 5.81 µM (inactive) | – | 12.7 µM (inactive) | 1.67 µM (inactive) | 8 µM (inactive)
12 | CCC1C(c2cc(OC)c(OC)c(OC)c2)c2cc3c(cc2OC1N1CCOCC1)OCO3 (configuration not stated) | 5.33 µM (inactive) | 14.2 µM (inactive) | 3.68 µM (inactive) | – | 4.01 µM (inactive) | – | 2.48 µM (inactive) | 2.84 µM (inactive) | 15.8 µM (inactive) | 0.977 µM (active) | – | 2.12 µM (inactive) | – | – | 2.79 µM (inactive) | 1.44 µM (inactive) | 4.14 µM (inactive) | 10.5 µM (inactive) | 3.88 µM (inactive) | –
13 | CNc1ncnc2c1nc(NC1CCCC1)n2C1OC(CO)C(O)C1O (configuration not stated) | > 100 µM (inactive) | – | > 100 µM (inactive) | – | > 100 µM (inactive) | > 100 µM (inactive) | – | > 100 µM (inactive) | > 100 µM (inactive) | > 100 µM (inactive) | > 100 µM (inactive) | > 100 µM (inactive) | – | > 100 µM (inactive) | > 100 µM (inactive) | > 100 µM (inactive) | > 100 µM (inactive) | > 100 µM (inactive) | > 100 µM (inactive) | –
14 | Cc1ccc(NC(=S)C#N)cc1Cl | 68.9 µM (inactive) | 42.2 µM (inactive) | 36.6 µM (inactive) | – | 49.1 µM (inactive) | 37.8 µM (inactive) | 42.3 µM (inactive) | 56.2 µM (inactive) | 88.3 µM (inactive) | 41.7 µM (inactive) | 33.8 µM (inactive) | – | 6.79 µM (inactive) | 29.4 µM (inactive) | 26.4 µM (inactive) | 24 µM (inactive) | – | 32.4 µM (inactive) | – | 25.5 µM (inactive)
15 | COc1ccc2c(c1)c1c(n2CCN(C)C)-c2cccc(OC)c2CC1 | 17.7 µM (inactive) | 14.4 µM (inactive) | 13.3 µM (inactive) | – | 13.8 µM (inactive) | 11.2 µM (inactive) | 13.4 µM (inactive) | 13.2 µM (inactive) | 13.7 µM (inactive) | 11 µM (inactive) | 18.8 µM (inactive) | 15.8 µM (inactive) | 2.05 µM (inactive) | – | 13.5 µM (inactive) | 10.4 µM (inactive) | 18.8 µM (inactive) | 10 µM (inactive) | 14.9 µM (inactive) | 2.65 µM (inactive)
16 | COc1cc2c(c(OC3OC(CO)C(O)C(O)C3O)c1)C(=O)CC(c1ccc(O)cc1)O2 (configuration not stated) | > 100 µM (inactive) | > 100 µM (inactive) | > 100 µM (inactive) | > 100 µM (inactive) | – | > 100 µM (inactive) | > 100 µM (inactive) | > 100 µM (inactive) | > 100 µM (inactive) | > 100 µM (inactive) | > 100 µM (inactive) | > 100 µM (inactive) | > 100 µM (inactive) | – | > 100 µM (inactive) | > 100 µM (inactive) | > 100 µM (inactive) | > 100 µM (inactive) | > 100 µM (inactive) | > 10 µM (inactive)
